{
  "source": "ChEMBL document CHEMBL1130935",
  "about": "“Synthesis of a paclitaxel isomer: C-2-acetoxy-C-4-benzoate paclitaxel” (Bioorg Med Chem Lett, 1998)",
  "target": "Tubulin alpha chain (Sus scrofa) (UniProt P02550)",
  "sequence (P02550 whole entry, looked up)": "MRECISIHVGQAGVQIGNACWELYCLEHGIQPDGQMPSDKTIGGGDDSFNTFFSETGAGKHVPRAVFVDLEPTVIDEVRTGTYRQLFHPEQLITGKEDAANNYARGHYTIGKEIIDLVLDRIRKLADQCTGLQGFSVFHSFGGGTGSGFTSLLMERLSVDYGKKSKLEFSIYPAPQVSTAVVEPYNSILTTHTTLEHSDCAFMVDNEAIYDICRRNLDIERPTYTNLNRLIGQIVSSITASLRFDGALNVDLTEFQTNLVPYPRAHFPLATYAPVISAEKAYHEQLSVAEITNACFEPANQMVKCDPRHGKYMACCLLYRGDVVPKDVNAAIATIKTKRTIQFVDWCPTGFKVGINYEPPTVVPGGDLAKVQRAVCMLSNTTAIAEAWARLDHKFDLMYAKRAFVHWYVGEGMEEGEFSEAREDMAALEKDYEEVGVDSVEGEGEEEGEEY",
  "assay": "Compound was tested for inhibitory activity against tubulin by tubulin polymerization assay; Inactive",
  "format": "functional",
  "note": "Activity calls are given as the source filed them. No cut-off for these calls is given here.",
  "data": [
    {"molecule": "CC(=O)O[C@H]1C(=O)[C@]2(C)[C@@H](O)CC3OC[C@@]3(OC(=O)c3ccccc3)[C@H]2[C@H](OC(C)=O)[C@]2(O)C[C@H](OC(=O)[C@H](O)[C@@H](NC(=O)c3ccccc3)c3ccccc3)C(C)=C1C2(C)C", "note": "(stereo partly specified)", "values": [
      {"measurement": "Activity", "result": "inactive"}
    ]}
  ]
}
